This is an account of results in patent US4980378A, “Biodegradable absorption enhancers” (priority 1988, dated 1990).

Where two headings read alike, the source gives them in different places.

A short description of data set [1]: Transdermal penetration of indomethacin from ointment across shed snake skin (vertical diffusion cell). It is filed as in vitro ADME, black rat snake (Elahe obsoleta). The procedure:
Ointments were prepared by mixing 100 mg (1%) indomethancin, 500 mg (5%) penetration enhancer and 9400 mg (94%) petrolatum at 55°-60°C. to give a homogenous dispersion of indomethacin. In each transport study, 30 mg of ointment containing […] of indomethacin was applied.
(§1) A whole shed snake skin from the molt of adult Elahe obsoleta (black rat snake) was obtained from the Animal Care Unit of the University of Kansas. Only the dorsal side of the shed snake skin was used for in vitro penetration studies. The head and tail sections of the snake skin was removed and the remainder of the skin was cut randomly into sections of approximately 2 inches by 2 inches. Each piece of snake skin was hydrated overnight by first soaking the skin in water (about 5 to 10 minutes) until it could be stretched and then placing it on a plastic pan which held some water. The pan was floated on a water-bath at 32° C. overnight.
For the transport studies using ointments, approximately 30 mg of ointment prepared as described in Example 5 was smeared evenly on an area of the 2"×2" snake skin. The ointment was smeared into an essentially circular area approximately 1.77 cm^2 and having a diameter of approximately 15 mm. The snake skin was then mounted on top of the receptor cell of a vertical diffusion cell assembly in which a small magnetic bar was inserted and filled with an isotonic buffer. A rubber o-ring was placed on top of the skin followed by the placement of the donor cell. The two cells were clamped together and transferred to a water-bath (32° C.) which had several magnetic stirrers placed underneath to stir the contents of the diffusion cells. Samples from the cells were withdrawn periodically by gravity by inputting fresh isotonic buffer into the cell inlets. The first five drops were discarded and the following […] drops were collected for analysis. These nine drops of sample solution were approximately equivalent to about 0.20 ml.
The samples were analyzed for the concentration of indomethacin using a Perkin-Elmer ISS-100 HPLC apparatus with a Perkin-Elmer LC90 UV spectrophotometric detector and a Perkin-Elmer ISS-100 automatic sampler with the detection wavelength set at 260 nm. The peak heights of the chromatograms were recorded on a Perkin-Elmer LCI-100 Laboratory Computing Integrator. A reverse phase column, RP-8 Spheri-5, 4.6×100 mm and a guard column OD-GU, purchased from Brownlee Labs, were used in conjunction with the HPLC system. The flow rate was 1.0 ml/min and the solvent system was a mixture of acetonitrile (50%) and a 0.01 M phosphate buffer (pH 3.0) (50%).
The concentration in each sample was interpreted from a standard curve which was obtained by plotting the peak areas obtained from HPL chromatograms versus four different standard solutions of indomethacin. The standard curves were linear over a range of concentrations from 2.5 to 10 µg/ml. The receptor cell volume was calibrated by weighing the amount of water in the cell. The first sample needs no concentration correction. However, the concentration in the subsequent samples can be corrected by the following equation: [formula] where Xi is number of microgram of indomethacin in the i^th sample. Yi is the concentration correction for i-l sample. The volume withdrawn for each sampling is about 0.20 ml.
(§2) Statistical analyses were performed using the Student's t-test.
Relative penetration enhancements (%) were calculated by [formula]
Azone was selected as the for comparison since it is claimed to excellent enhancer although it is too toxic; was assigned a value of 100% enhancement.
Penetration that was equal the penetration of Azone was reported as 100% rela penetration. All of the relative enhancements in Table 3 are based on the early stage or hours o penetration studies.
At least 3 or 4 cells were used for each enhancer and mean val (μg) of indomethacin in the receptor cells are plotted versus time in hours.

The format of data set [2] is in vitro ADME, black rat snake (Elahe obsoleta). The procedure: Patches were prepared by first dissolving 300 mg indomethacin, 400 mg penetration enhancer, 300 mg polyethylene glycol 400 and 800 mg hydroxypropyl cellulose in 20 ml of ethanol. That viscous solution was spread on a backing layer, which was a film of ethoxycellulose, with 0.9 mm of thickness. After drying at 40° C. for one hour, two layer film patches were obtained. Circles with a diameter of 12 mm were used for the transport studies.
as §1, §2

The conditions of data set [3]: intraperitoneal administration; cited from earlier work.
[4] abbreviates: indomethacin ointment, 5% enhancer, relative to Azone = 100%, early stage of penetration studies, 32° C.

For the molecule `CCCCCCCCCCCCCCOC(=O)CN(C)C` [Compound No. 1, tetradecyl (N,N-dimethylamino)acetate], the “Relative Enhancement” value in data set [1] (setting [4]) was 100%.
As for `CCCCCCCCCCCCOC(=O)CN(CC)CC` [Compound No. 5, dodecyl (N,N-diethylamino)acetate], in data set [1] (setting [4]), the “Relative Enhancement” value was determined as 70%.
`CCCCCCCCCCCCO` [dodecyl alcohol, reference compound]: in data set [2], the “steady state flux for indomethacin” value is 1.49 ± 0.21 µg/h and the “time to reach steady state flux of indomethacin” value is recorded as “about 5 hours”.
Turning to `CCCCCCCCOC(=O)CN(C)C` [Compound No. 4, octyl (N,N-dimethylamino)acetate], in data set [1], the “Relative Enhancement” value was determined as 250%.
In the case of `CCCCCCCCCCOC(=O)CN(C)C` [compound 3, decyl (N,N-dimethylamino)acetate], the “Relative Enhancement” value in data set [1] (setting [4]) is recorded as 380%.
Take `CCCCCCCCCCCCN1CCCCCC1=O` [Azone, 1-Dodecylazacycloheptane-2-One, reference compound]: the LD50 entry in data set [3] was “approximately 232 mg/kg”. Moreover, in data set [1], the “Relative Enhancement” value was found to be 100%. The “indomethacin detected in receptor cells” value in data set [1] (ointment, early stage of less than 12 hours) was “only a few”.
As to `CCCCCCCCCCCCOC(=O)CN(C)C` [Compound No. 2, dodecyl (N,N-dimethylamino)acetate], in data set [2], the “steady state flux for indomethacin” value is 3.84 ± 0.57 µg/h, the “steady state flux ratio versus dodecyl alcohol” value is 2.5 times and the “time to reach steady state flux of indomethacin” value is on record as “about 2 hours”. In data set [1], the “Relative Enhancement” value was found to be 200%, the “speed of effect compared with Azone” value is recorded as “faster than that of Azone” and the “transport of indomethacin compared with that accelerated by Azone” value is on record as “twice”.
Consider `CCCCCCCCCCOC(=O)CN1CCN(C)CC1` [Compound No. 6, Decyl (4-methyl-1-piperazinyl)acetate], for which the “Relative Enhancement” value in data set [1] (setting [4]) is reported as 40%.
